Legend:
Adenosine receptor A2a [1] = biological target: T1, Adenosine receptor A2a (Rattus norvegicus, UniProt P30543)
Description: Binding ability of adenosine A2a receptor by using [3H]-CGS- as radioligand in rat striatal homogenate

Adenosine receptor A1 = biological target: T2, Adenosine receptor A1 (Rattus norvegicus, UniProt P25099); experiment: biochemical
T2 sequence (P25099 whole entry): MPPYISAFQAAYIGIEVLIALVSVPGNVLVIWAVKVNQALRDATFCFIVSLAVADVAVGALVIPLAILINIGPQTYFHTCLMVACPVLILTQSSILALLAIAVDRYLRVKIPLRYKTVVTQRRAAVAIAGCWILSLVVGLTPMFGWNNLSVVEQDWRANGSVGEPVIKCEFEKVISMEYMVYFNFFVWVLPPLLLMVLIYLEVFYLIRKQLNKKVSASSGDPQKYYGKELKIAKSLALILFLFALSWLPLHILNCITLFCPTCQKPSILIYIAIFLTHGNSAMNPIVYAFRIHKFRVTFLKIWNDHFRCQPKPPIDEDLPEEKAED
Description: Binding ability of adenosine A1 receptor by using [3H]CHA as radioligand in rat whole brain homogenate

Adenosine receptor A2a [2] = biological target: T1, Adenosine receptor A2a; experiment: Displacement of [3H]-CGS- from Adenosine A2a receptor of rat striatal homogenate

T1 sequence (P30543 whole entry): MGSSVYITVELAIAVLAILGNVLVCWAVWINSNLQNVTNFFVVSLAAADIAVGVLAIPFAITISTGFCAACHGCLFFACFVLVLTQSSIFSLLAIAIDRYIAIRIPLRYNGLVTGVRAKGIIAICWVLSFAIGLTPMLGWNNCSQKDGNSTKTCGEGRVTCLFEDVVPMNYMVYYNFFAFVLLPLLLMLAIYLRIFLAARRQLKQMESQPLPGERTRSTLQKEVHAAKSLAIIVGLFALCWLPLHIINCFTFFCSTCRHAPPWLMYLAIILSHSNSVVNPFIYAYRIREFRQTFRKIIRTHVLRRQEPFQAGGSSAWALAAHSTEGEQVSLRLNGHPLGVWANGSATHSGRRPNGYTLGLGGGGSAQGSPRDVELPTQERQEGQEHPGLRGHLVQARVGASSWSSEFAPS

Compound	Ki (Adenosine receptor A2a [1]) [nM]	Ki (Adenosine receptor A1) [nM]	Ki (Adenosine receptor A2a [2]) [nM]
Nc1nc2nn(Cc3ccc(F)cc3)cc2c2nc(-c3ccco3)nn12	1.2	3.3	
Nc1nc2c(nnn2Cc2ccccc2F)c2nc(-c3ccco3)nn12	10.4	13.7	
Nc1nc2c(nnn2CCc2ccccc2)c2nc(-c3ccco3)nn12	6.9	42.4	
Nc1nc2c(nnn2Cc2ccccc2)c2nc(-c3ccco3)nn12	4.6	6.1	
Nc1nc2nn(Cc3ccc(F)cc3)nc2c2nc(-c3ccco3)nn12	2.5	18.3	
Nc1nc2ccc(Cl)cc2c2nc(-c3ccco3)nn12 [CGS-15943]			1.2
Nc1nc2c(nnn2Cc2cccc(F)c2)c2nc(-c3ccco3)nn12	4.9	19	
Nc1nc2c(nnn2Cc2ccc(F)cc2)c2nc(-c3ccco3)nn12	13.7	61.2	

Second part, led by results:

Ki (Adenosine receptor A2a [1]) [nM]	Ki (Adenosine receptor A1) [nM]	Compound	Ki (Adenosine receptor A2a [2]) [nM]
12	116	CC(C)CCn1ncc2c1nc(N)n1nc(-c3ccco3)nc21	
101	651	Cn1ncc2c1nc(N)n1nc(-c3ccco3)nc21	
1.4	4.7	Nc1nc2nn(CCc3ccccc3)cc2c2nc(-c3ccco3)nn12	
2.4	30.4	CCCCn1cc2c(nc(N)n3nc(-c4ccco4)nc23)n1	
8.9	236	CCCCn1ncc2c1nc(N)n1nc(-c3ccco3)nc21	
	5.6	CC(C)CCn1cc2c(nc(N)n3nc(-c4ccco4)nc23)n1	

— ChEMBL document CHEMBL1127769, “Synthesis of new pyrazolo[4,3-e]1,2,4-triazolo[1,5-c] pyrimidine and 1,2,3-triazolo[4,5-e]1,2,4-triazolo[1,5-c] pyrimidine displaying potent and selective activity as A2a adenosine receptor antagonists” (Bioorg Med Chem Lett, 1994)
